Assay type in all cases: biochemical
In one assay the target is EGFR (Homo sapiens, UniProt P00533). Put plainly: Inhibition of a panel of kinases, in vitro HotSpot kinase assay: EGFR. The settings on record: D-compounds panel data; 1 μM ATP. The procedure: (§1) The degree of inhibition of a panel of kinases is determined using the in vitro HotSpot kinase assay (purified enzymes, ^33P-ATP, an appropriate substrate and 1 μM ATP).
The target of the next assay is T1, ITK (Homo sapiens, UniProt Q08881).
T1 sequence (Q08881 1-620): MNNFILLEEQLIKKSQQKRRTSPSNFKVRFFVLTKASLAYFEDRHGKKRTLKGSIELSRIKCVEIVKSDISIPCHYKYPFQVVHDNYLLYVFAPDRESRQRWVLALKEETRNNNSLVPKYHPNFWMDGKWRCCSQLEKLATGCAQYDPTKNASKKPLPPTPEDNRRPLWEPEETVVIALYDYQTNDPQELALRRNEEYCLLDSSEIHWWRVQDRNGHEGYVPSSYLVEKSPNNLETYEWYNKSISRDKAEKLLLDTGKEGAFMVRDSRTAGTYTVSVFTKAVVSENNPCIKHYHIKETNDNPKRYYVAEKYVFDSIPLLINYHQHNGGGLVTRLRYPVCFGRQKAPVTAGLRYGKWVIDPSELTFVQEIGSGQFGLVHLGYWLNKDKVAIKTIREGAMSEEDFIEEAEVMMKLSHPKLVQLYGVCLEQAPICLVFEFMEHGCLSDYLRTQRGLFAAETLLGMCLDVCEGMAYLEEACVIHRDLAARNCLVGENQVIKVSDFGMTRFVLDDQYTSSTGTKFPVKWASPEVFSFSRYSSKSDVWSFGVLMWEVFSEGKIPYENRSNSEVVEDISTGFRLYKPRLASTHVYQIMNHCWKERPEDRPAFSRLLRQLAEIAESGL
Nature of the assay: Inhibition of a panel of kinases, in vitro HotSpot kinase assay: ITK. Particulars: D-compounds panel data; 1 μM ATP. Here is the method:
as §1

For a further assay, the target named is LCK (Homo sapiens, UniProt P06239). Put plainly: Inhibition of a panel of kinases, in vitro HotSpot kinase assay: LCK. Particulars: D-compounds panel data; 1 μM ATP; read-out: IC50 LCK.
Sequence of LCK (P06239 whole entry): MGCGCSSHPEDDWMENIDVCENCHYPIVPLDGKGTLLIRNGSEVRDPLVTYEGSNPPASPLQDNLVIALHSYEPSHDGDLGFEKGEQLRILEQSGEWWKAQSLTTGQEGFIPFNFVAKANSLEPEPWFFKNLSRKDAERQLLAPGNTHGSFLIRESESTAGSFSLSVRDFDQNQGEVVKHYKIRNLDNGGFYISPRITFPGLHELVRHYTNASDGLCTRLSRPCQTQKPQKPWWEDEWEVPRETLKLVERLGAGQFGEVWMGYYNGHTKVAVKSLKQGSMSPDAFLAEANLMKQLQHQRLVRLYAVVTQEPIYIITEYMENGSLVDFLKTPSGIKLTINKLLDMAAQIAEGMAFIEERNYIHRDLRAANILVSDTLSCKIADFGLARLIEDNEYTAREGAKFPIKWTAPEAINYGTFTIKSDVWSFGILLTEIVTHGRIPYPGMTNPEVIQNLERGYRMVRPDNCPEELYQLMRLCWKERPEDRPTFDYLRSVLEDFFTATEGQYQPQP
Another assay has as its target T2, JAK3 (Homo sapiens, UniProt P52333).
T2 sequence (P52333 1-1124): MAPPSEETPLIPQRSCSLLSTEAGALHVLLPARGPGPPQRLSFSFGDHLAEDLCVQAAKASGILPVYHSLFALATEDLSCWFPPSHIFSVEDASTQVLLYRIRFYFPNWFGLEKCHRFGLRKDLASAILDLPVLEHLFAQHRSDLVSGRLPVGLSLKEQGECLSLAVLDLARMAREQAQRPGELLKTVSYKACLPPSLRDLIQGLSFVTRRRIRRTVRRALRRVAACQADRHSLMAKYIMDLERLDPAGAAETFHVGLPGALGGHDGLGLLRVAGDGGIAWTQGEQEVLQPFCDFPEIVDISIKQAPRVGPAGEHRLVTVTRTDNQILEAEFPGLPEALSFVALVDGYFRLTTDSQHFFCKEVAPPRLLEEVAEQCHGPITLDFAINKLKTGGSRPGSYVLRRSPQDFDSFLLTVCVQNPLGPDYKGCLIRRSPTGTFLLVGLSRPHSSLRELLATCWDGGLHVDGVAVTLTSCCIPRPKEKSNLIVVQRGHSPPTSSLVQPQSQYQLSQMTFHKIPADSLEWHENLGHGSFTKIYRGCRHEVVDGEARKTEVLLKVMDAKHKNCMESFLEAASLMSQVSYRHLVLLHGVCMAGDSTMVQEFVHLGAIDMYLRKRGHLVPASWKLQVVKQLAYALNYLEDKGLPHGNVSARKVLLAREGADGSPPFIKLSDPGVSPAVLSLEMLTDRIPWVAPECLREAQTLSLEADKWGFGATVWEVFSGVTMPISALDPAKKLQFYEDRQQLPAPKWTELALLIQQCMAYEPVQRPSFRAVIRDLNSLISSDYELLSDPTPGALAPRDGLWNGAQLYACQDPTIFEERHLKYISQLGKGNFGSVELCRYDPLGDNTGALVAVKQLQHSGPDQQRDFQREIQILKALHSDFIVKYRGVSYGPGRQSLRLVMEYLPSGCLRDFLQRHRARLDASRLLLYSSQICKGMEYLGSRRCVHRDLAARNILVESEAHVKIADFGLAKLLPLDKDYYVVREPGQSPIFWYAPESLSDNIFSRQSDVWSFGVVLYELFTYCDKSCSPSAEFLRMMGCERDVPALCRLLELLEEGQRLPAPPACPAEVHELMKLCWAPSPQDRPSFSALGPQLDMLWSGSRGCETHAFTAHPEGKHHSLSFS
Put plainly: Inhibition of a panel of kinases, in vitro HotSpot kinase assay: JAK3. Particulars: D-compounds panel data; 1 μM ATP; read-out: IC50 JAK3.

For another assay, the target named is SRC (Homo sapiens, UniProt P12931). Nature of the assay: Inhibition of a panel of kinases, in vitro HotSpot kinase assay: SRC. Particulars: D-compounds panel data; 1 μM ATP. Here is the method:
as §1

The next assay concerns the target T3, TEC (Homo sapiens, UniProt P42680).
T3 sequence (P42680 1-631): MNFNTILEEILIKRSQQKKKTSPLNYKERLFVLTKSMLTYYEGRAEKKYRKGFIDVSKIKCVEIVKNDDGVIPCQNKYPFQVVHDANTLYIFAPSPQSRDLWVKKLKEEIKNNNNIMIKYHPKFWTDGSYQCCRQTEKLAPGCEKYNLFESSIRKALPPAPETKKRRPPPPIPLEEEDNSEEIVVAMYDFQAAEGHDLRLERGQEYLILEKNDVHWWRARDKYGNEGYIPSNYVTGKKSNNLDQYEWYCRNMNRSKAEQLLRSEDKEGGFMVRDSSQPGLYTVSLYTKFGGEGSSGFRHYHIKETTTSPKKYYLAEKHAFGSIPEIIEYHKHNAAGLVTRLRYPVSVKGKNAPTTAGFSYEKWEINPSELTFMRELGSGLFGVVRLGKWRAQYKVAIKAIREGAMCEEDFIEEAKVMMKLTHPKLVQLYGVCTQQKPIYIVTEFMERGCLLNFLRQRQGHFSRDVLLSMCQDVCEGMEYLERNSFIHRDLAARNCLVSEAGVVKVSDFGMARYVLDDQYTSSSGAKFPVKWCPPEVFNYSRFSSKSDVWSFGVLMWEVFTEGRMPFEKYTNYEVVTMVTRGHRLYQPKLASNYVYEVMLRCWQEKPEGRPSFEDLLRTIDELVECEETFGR
Nature of the assay: Inhibition of a panel of kinases, in vitro HotSpot kinase assay: TEC. Particulars: D-compounds panel data; 1 μM ATP. Here is the method:
as §1

A value given as a limit tells only on which side of the number the result lay.

Sequence of EGFR (P00533 25-1210): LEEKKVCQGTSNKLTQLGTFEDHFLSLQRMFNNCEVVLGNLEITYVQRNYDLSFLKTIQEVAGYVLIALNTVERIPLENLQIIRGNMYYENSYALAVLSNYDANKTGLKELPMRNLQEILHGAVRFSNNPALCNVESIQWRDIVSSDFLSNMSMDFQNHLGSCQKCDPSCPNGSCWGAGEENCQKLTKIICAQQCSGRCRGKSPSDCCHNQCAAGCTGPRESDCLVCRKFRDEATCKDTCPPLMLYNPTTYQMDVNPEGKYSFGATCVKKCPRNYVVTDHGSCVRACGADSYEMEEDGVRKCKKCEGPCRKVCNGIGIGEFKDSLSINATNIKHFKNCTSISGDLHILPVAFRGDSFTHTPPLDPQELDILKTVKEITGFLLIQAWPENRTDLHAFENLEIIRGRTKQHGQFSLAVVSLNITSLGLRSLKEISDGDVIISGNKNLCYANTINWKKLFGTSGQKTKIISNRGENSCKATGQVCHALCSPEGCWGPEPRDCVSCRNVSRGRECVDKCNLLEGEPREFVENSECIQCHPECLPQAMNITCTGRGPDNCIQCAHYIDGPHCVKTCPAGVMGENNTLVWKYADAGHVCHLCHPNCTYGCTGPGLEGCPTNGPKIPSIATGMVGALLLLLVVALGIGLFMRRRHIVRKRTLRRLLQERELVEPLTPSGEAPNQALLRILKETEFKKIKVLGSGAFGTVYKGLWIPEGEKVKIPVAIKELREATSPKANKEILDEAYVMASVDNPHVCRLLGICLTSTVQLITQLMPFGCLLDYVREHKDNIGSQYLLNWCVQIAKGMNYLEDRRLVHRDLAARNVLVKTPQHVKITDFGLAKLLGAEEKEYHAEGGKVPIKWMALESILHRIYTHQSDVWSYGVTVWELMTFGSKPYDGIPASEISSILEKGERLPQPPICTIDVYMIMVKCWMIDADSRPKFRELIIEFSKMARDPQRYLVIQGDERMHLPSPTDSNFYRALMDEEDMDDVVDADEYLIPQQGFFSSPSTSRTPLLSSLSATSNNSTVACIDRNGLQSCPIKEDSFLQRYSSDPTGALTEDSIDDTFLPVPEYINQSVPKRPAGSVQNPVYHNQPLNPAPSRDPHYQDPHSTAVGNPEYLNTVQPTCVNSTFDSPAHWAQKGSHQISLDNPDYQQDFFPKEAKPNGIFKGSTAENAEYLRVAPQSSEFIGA
Sequence of SRC (P12931 whole entry): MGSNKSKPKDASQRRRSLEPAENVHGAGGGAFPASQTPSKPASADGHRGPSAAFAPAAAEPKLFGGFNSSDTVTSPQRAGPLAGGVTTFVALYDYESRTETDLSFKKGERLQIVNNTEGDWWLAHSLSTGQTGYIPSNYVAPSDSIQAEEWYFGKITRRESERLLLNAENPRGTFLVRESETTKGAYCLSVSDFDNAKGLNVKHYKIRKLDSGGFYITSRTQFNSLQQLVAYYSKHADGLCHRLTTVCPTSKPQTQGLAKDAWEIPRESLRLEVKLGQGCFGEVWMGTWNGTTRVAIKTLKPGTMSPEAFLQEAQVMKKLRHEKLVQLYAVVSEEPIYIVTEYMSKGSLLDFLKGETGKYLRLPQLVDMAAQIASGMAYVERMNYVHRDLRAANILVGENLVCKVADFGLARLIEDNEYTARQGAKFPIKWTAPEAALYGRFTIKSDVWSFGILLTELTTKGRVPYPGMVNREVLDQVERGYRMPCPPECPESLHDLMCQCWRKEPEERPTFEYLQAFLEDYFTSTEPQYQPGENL

Usually IC50 stands for the concentration that inhibits the measured activity by half. As to `CC1(c2ccc(Nc3nc(N4CCC[C@@H](n5ccc6cc(C7CC7)ccc6c5=O)C4)cnc3C(N)=O)cc2)CCN(C2CCCC2)CC1` [Example D-177, 3-{[4-(1-cyclopentyl-4-methylpiperidin-4-yl)phenyl]amino}-5-[(3R)-3-(6-cyclopropyl-1-oxo-1,2-dihydroisoquinolin-2-yl)piperidin-1-yl]pyrazine-2-carboxamide], the IC50 was 100 to 1000 nM against EGFR; 10 to 100 nM against ITK; 10 to 100 nM on LCK; 100 to 1000 nM on JAK3; 10 to 100 nM on SRC; at most 10 nM on TEC.
Take `C[C@@H]1[C@H](NC(=O)c2ccc(C3CC3)cc2)CCCN1c1cnc(C(N)=O)c(Nc2cnn(CCN(C)C)c2)n1` [Example D-187, 5-[(2R,3R)-3-(4-cyclopropylbenzamido)-2-methylpiperidin-1-yl]-3-({1-[2-(dimethylamino)ethyl]-1H-pyrazol-4-yl}amino)pyrazine-2-carboxamide]: the 50% inhibitory concentration (IC50) at EGFR was 1000 to 10000 nM; at ITK, 1000 to 10000 nM; at LCK, 100 to 1000 nM; at JAK3, 1000 to 10000 nM; at SRC it was 100 to 1000 nM; on TEC, 100 to 1000 nM.
As for `C[C@@H]1[C@H](NC(=O)c2ccc(C3CC3)cc2F)CCCN1c1cnc(C(N)=O)c(Nc2ccc(N3CCN(C)CC3)nc2)n1` [Example D-13, 5-[(2R,3R)-3-(4-cyclopropyl-2-fluorobenzamido)-2-methylpiperidin-1-yl]-3-{[6-(4-methylpiperazin-1-yl)pyridin-3-yl]amino}pyrazine-2-carboxamide], the half-maximal inhibitory concentration (IC50) on EGFR lay in the range of 1000 to 10000 nM; on ITK, 1000 to 10000 nM; at LCK it was 100 to 1000 nM; on JAK3, 1000 to 10000 nM; on SRC, 100 to 1000 nM; at TEC it was 100 to 1000 nM.
For `C[C@@H]1[C@H](NC(=O)c2ccc(S(C)(=O)=O)cc2)CCCN1c1cnc(C(N)=O)c(Nc2ccc(N3CCN(C)CC3)cc2)n1` [Example D-227, 5-[(2R,3R)-3-(4-methanesulfonylbenzamido)-2-methylpiperidin-1-yl]-3-{[4-(4-methylpiperazin-1-yl)phenyl]amino}pyrazine-2-carboxamide], the IC50 is 100 to 1000 nM against EGFR; 10 to 100 nM on ITK; 10 to 100 nM at LCK; 100 to 1000 nM at JAK3; at most 10 nM on SRC; at most 10 nM at TEC.
Take `Cc1cc(Nc2nc(N3C[C@H](NC(=O)c4ccc(C5CC5)cc4F)CC[C@@H]3C)cnc2C(N)=O)sn1` [Example D-181, 5-[(2S,5R)-5-(4-cyclopropyl-2-fluorobenzamido)-2-methylpiperidin-1-yl]-3-[(3-methyl-1,2-thiazol-5-yl)amino]pyrazine-2-carboxamide]: the 50% inhibitory concentration (IC50) against EGFR lay within 100 to 1000 nM; at ITK, 1000 to 10000 nM; on LCK it was 100 to 1000 nM; on JAK3, 100 to 1000 nM; on SRC, 10 to 100 nM; on TEC it was 10 to 100 nM.
Turning to `Cc1cc(Nc2nc(N3CCC[C@@H](NC(=O)N4Cc5ccccc5C4=O)C3)cnc2C(N)=O)sn1` [Example D-15, N-[(3R)-1-{5-carbamoyl-6-[(3-methyl-1,2-thiazol-5-yl)amino]pyrazin-2-yl}piperidin-3-yl]-1-oxo-2,3-dihydro-1H-isoindole-2-carboxamide], the 50% inhibitory concentration (IC50) lay in the range of 100 to 1000 nM against EGFR; 10 to 100 nM against ITK; 10 to 100 nM at LCK; 1000 to 10000 nM at JAK3; 10 to 100 nM on SRC; 10 to 100 nM on TEC.
Take `CN1CCN([C@@H]2CCCN(c3cnc(C(N)=O)c(Nc4cnn(C)c4)n3)C2)C1=O` [Example D-209, 3-[(1-methyl-1H-pyrazol-4-yl)amino]-5-[(3R)-3-(3-methyl-2-oxoimidazolidin-1-yl)piperidin-1-yl]pyrazine-2-carboxamide]: the IC50 against EGFR was above 10000 nM; against ITK, 1000 to 10000 nM; at LCK, 100 to 1000 nM; on JAK3, 1000 to 10000 nM; against SRC it was 100 to 1000 nM; against TEC, 10 to 100 nM.
As for `Cn1cc(Nc2nc(N3CCC[C@@H](n4ccc5cc(C6CC6)ccc5c4=O)C3)cnc2C(N)=O)cn1` [Example D-184, 5-[(3R)-3-(6-cyclopropyl-1-oxo-1,2-dihydroisoquinolin-2-yl)piperidin-1-yl]-3-[(1-methyl-1H-pyrazol-4-yl)amino]pyrazine-2-carboxamide], the IC50 on EGFR is above 10000 nM; on ITK it was above 10000 nM; on LCK, 1000 to 10000 nM; at JAK3, above 10000 nM; at SRC it was 1000 to 10000 nM; against TEC, 10 to 100 nM.
`C[C@@H]1[C@H](NC(=O)c2ccc(C3CC3)cc2)CCCN1c1cnc(C(N)=O)c(Nc2cnn(C)c2)c1` [Example D-207, 5-[(2R,3R)-3-(4-cyclopropylbenzamido)-2-methylpiperidin-1-yl]-3-[(1-methyl-1H-pyrazol-4-yl)amino]pyridine-2-carboxamide]: the 50% inhibitory concentration (IC50) is above 10000 nM at EGFR; 1000 to 10000 nM against ITK; 100 to 1000 nM on LCK; 100 to 1000 nM on JAK3; 100 to 1000 nM on SRC; 100 to 1000 nM at TEC.
For `C[C@@H]1[C@H](NC(=O)c2ccc3c(cnn3C)c2)CCCN1c1cnc(C(N)=O)c(Nc2ccc(N3CCN(C)CC3)cc2)n1` [Example D-234, N-[(2R,3R)-1-(5-carbamoyl-6-{[4-(4-methylpiperazin-1-yl)phenyl]amino}pyrazin-2-yl)-2-methylpiperidin-3-yl]-1-methyl-1H-indazole-5-carboxamide], the IC50 against EGFR is 100 to 1000 nM; on ITK, 10 to 100 nM; on LCK, 10 to 100 nM; at JAK3, 100 to 1000 nM; against SRC, 10 to 100 nM; against TEC it was at most 10 nM.
